These results are taken from US20240139125A1 (INDUSTRIAL COOPERATION FOUNDATION JEONBUK NATIONAL …, priority 2020, published 2024).

Assay [1] has as its target T1, binding of BI-1 and mTORC2 and ribosomes (Homo sapiens, UniProt P55061).
T1 construct: expressed in transfected cells
Nature of the assay: PLA, immunoprecipitation and gel filtration of BI-1/mTORC2/ribosome binding. The class given is cell-based. Here is the method: The graph below quantifies the fine and bright spots (n=5 independent experiment). The scale bar represents 20 μm. Data were expressed as mean±SD. **p<0.01, ****p<0.0001, followed by a binary ANOVA, followed by Bonferroni's post hoc test.
FIG. 62B is the result of PLA between RICTOR and the following proteins mTOR, RPL19 and RPS 16 in HT1080 cells treated with 10 μM BIA. The scale bar represents 20 μm. The graph on the right quantifies the fine and bright points (n=5 independent experiment). Data were expressed as mean±SD. **p<0.01, ***p<0.001, ****p<0.0001, followed by a binary ANOVA followed by Bonferroni's post hoc test.
HT1080 cells knocked out of BI-1 (using 8 10 cm cell culture dishes for each sample) were temporarily transformed using HA-BI-1 (TMBIM6) plasmids. HT1080 cells knocked out of BI-1 were treated with 10 μM of 2E-1-2-Aminophenyl-3-3-nitrophenyl-2-propen-1-one (BIA). After 24 hours, CHAPS containing protease inhibitor cocktail and phosphatase inhibitor cocktail Cells were lysed in 1.0 ml of buffer (pH 7.4, 150 mM NaCl, 1 mM EDTA and 25 mM HEPES at 0.3% CHAPS). The cell lysate was filtered with a 0.45 μm syringe filter. […] 50 μL of each fraction was electrophoresis with SDS-PAGE and then detected with various antibodies. […]
For orientation: Size exclusion chromatography separates by hydrodynamic size, large species first.

Assay [2] deals with tumors derived from MDA-MB-231 cells. Nature of the assay: Xenograft in nude mice. Type of assay: in vivo. The note with it: MDA-MB-231 xenograft, 1 mg/kg BIA, 5 days a week, 25 days. The procedure:
FIG. 67C and FIG. 67D show the volume and weight of tumors derived from MDA-MB-231 cells injected into a nude mouse treated with a vehicle or 1 mg/kg BIA. (n=5 mice for each group). Data were expressed as mean±SD. ***p<0.001, ****p<0.0001, followed by binary ANOVA, followed by Bonferroni's post hoc test (C) or two-tailed unpaired t-test (B).
Mice purchased 20-25 g of BALBc/Nude and conducted experiments after 1 week of preliminary breeding to adapt to the laboratory environment. This experiment was approved by the Animal Experiment Ethics Committee of Chonbuk National University (CBNU 201 5-064, CBNU 2016-56) and was carried out according to standard work instructions, and the conditions in the breeding room were kept constant temperature and relative humidity, a 12-hour contrast cycle, and water and feed were freely consumed. Experimental animals are transplanted subcutaneously with 5×10^6 cells per mouse using HT1080 cell line and MDA-MB-231 cell line, and after 7-10 days, mice forming tumor sizes of 100 mm^3 are randomly divided into control and experimental groups. The control group is injected with saline (including 10% DMSO) and the experimental group is injected with 1 mg/kg (10% DMSO) into the abdomen. The drug is given 5 days a week, and repeated for 4 weeks. […] The tumor size was measured with a caliper and calculated using the following formula: […]

In assay [3] the test system is HT1080 cells stably overexpressing BI-1. The experiment in a line: Cell proliferation of BI-1 overexpressing cells with BIA. Type of assay: cell-based. The note with it: 1 day after treatment.

T1 sequence (P55061 whole entry): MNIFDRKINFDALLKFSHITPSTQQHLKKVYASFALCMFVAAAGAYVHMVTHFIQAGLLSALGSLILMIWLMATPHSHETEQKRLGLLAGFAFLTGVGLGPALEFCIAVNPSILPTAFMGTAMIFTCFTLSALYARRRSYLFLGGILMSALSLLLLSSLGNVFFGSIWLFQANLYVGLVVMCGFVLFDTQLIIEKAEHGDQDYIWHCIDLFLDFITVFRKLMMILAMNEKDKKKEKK

Consider `Nc1ccccc1C(=O)/C=C/c1cccc([N+](=O)[O-])c1` [BIA, 2E-1-2-Aminophenyl-3-3-nitrophenyl-2-propen-1-one], for which the “protein interactions between mTORC2 and ribosomes or binding of BI-1 and mTORC2 and ribosomes” value in assay [1] (HT1080 cells, PLA and immunoprecipitation) is listed as “inhibited”. Further, the “co-elution pattern with mTORC2 components (mTOR and RICTOR) and ribosomes (RPL19)” value in assay [1] (gel filtration, BI-1 overexpressed HT1080 cells, BIA for 24 hours) was “delayed”. In addition, the tumor growth entry in assay [2] is “significantly impaired”. Also, in assay [3], the “sensitivity to BIA (cell proliferation)” value is listed as “high sensitivity”.
